Assay results reported in ChEMBL document CHEMBL1141913, “Novel 2-aminothiazonaphthalimides as visible light activatable photonucleases: effects of intercalation, heterocyclic-fused area and side chains” (Bioorg Med Chem Lett, 2005).

The compounds below were run on Calf thymus DNA (assay: Scatchard binding constant between calf thymus DNA (CT-DNA) measured in 30 mM Tris HCl buffer at pH 7.5). Conditions: Bos taurus.
Type: nucleic-acid assay

Row | Structure (SMILES) | Binding constant [M⁻¹]
1 | CN(C)CCCN1C(=O)c2cccc3cc4nc(N)sc4c(c23)C1=O | 47300
2 | CN(C)CCN1C(=O)c2cccc3c2c(cc2nc(N)sc23)C1=O | 19800
3 | CN(C)CCCN1C(=O)c2cccc3c2c(cc2nc(N)sc23)C1=O | 28700
4 | CN(C)CCN1C(=O)c2cccc3cc4nc(N)sc4c(c23)C1=O | 25600
